Assay results as given in paper PMC3537892 (Clinical cancer research : an official journal of the …, 2012).

System: RENCA renal cancer cells grafted in the renal capsule
Assay: Orthotopic RENCA renal cancer allograft
Format: in vivo, BALB/c mice
Conditions: three i.v. injections in fourth week after grafting; p < 0.003

SMILES: CC(=O)O[C@H]1C(=O)[C@@]2(C)[C@H]([C@H](OC(=O)c3ccccc3)[C@]3(O)C[C@H](OC(=O)[C@H](O)[C@@H](NC(=O)c4ccccc4)c4ccccc4)C(C)=C1C3(C)C)[C@]1(OC(C)=O)CO[C@@H]1C[C@@H]2O [PTX, paclitaxel]
- tumor volume compared to vehicle control: significantly decreased tumor volume
